Data reported in patent publication US6384187B1, “Antiproliferative activity of microsclerodermins” (Harbor Branch Oceanographic Institution, Inc., priority 1999, dated 2002).

Tested on: A549 human lung adenocarcinoma cells
Experiment: Immunofluorescent detection of effects on the microtubule matrix (anti-alpha-tubulin)
Type: cell-based
Experimental: Microsclerodermin compounds were evaluated as to their effects on the microtubule network of A549 human lung adenocarcinoma cells using anti-alpha-tubulin monoclonal antibodies. […] Tests were conducted to determine if the microsclerodermin compounds acted upon the cellular microtubule network in a similar fashion.
On day 1, 7.0×10^4 adherent A549 cells were cultured in TCM overnight at 37° C. in 5% CO2 on 22 mm2 coverslipsin 6-well microtiter plates. On day 2, the TCM was removed and replaced with various concentrations of the microsclerodermin compounds, or discodermolide,in TCM or TCM without drug (control) and incubated for 24 hours at 37° C. in 5% CO2. On day 3, the TCM was removed and the adhered cells were fixed in 3.7% formaldehyde solution in Dulbecco's phosphate-buffered saline (D-PBS) for 10 minutes at room temperature. The cells were then permeabilized in a 2% Triton X-100 solution in D-PBS, 2 ml per well, for 5 minutes at room temperature and washed twice in D-PBS prior to staining.
To each well containing cells attached to coverslips a 2 ml volume of mouse monoclonal anti-alpha-tubulin(Cat#T-5168, Sigma Immuno Chemicals) diluted 1:1000 in D-PBS was added and the cells incubated at room temperature for 45 minutes. The coverslips were rinsed twice with D-PBS. A 2 ml volume of goat-anti-mouse-IgG-FITC conjugate (Cat#T-5262, Sigma Immuno Chemicals) diluted at 1:1000 in D-PBS was added and the cells incubated at room temperature for 45 minutes. Coverslips were rinsed twice in D-PBS and incubated for 30 minutes at 37° C. with 1 ml/well of propidium iodide ([…]) and ribonuclease A ([…]) in D-PBS. The cover slips were rinsed three times with sterile distilled water, mounted on slides, and observed under the microscope using epifluorescence illumination for the presence of abnormal aster and microtubule bundle formation.

[1] = treated cells, concentration not given, reference agents

Molecule | abnormal aster and microtubule bundle formation [1] | abnormal aster and microtubule bundle formation (A549 cells, 5 μg/ml, 24 hours) | cell number compared with control cultures (A549 cells, 5 μg/ml, 24 hours) | cells undergoing mitosis (A549 cells, 5 μg/ml, 24 hours) | alpha-tubulin antibody staining of the microtubule matrix (A549 cells, 5 μg/ml, 24 hours, seen in some cells)
C=C/C=C\[C@H](C)[C@H](OC(N)=O)[C@@H](C)[C@H](O)[C@@H](C)C/C(C)=C\[C@H](C)[C@@H](O)[C@@H](C)/C=C\[C@@H](O)C[C@@H]1OC(=O)[C@H](C)[C@@H](O)[C@H]1C [discodermolide, reference compound] | abnormal formation of multiple centriolar-radiating microtubules with extensive clusters of associated microtubular “bundles” |  |  |  | 
CC(=O)O[C@H]1C(=O)[C@@]2(C)[C@H]([C@H](OC(=O)c3ccccc3)[C@]3(O)C[C@H](OC(=O)[C@H](O)[C@@H](NC(=O)c4ccccc4)c4ccccc4)C(C)=C1C3(C)C)[C@]1(OC(C)=O)CO[C@@H]1C[C@@H]2O [paclitaxel, reference compound] | abnormal formation of multiple centriolar-radiating microtubules with extensive clusters of associated microtubular “bundles” |  |  |  | 
microsclerodermin F |  | nor was there any microtubule bundling or cells with multiple asters | fewer cells than in control cultures | No cells in the culture were found to be undergoing mitosis | completely disassembled structure with a near uniform distribution throughout the cytoplasm
